Experimental data taken from patent US5124315A, “Liquid pharmaceutical composition for nasal administration containing a polypeptide as active ingredient” (Phideatech S.R.L., priority 1991, dated 1992).

Conditions: liquid nasal compositions, common storage conditions
Source text: The present inventors have accordingly conducted extensive researches for finding a suitable stabilizing agent.

Compound: N.N.O=C(O)C(O)C(O)C(=O)O (stereo not shown) [ammonium tartrate]
- stabilizing activity on liquid compositions containing polypeptides: satisfactory stabilizing agent
